Earlier results, collected in US5001113A, “Di- or tripeptide renin inhibitors containing lactam conformational restriction in ACHPA” (Merck & Co., Inc., priority 1990, dated 1991).
Where a SMILES comes first, the peptide text is derived from it. [ ]: non-standard residue; d: D form. The star is where a group is joined. Sta = CC(C)C[C@H](N)[C@@H](O)CC(=O)O; Isovaleryl = CC(C)CC(=O)*

Tested on: hog renin
Conditions: after the injection of hog renin into nephrectomized rats

**Q.** For `CC(C)CC(=O)N[C@H](C(=O)N[C@H](C(=O)N[C@@H](CC(C)C)[C@@H](O)CC(=O)N[C@@H](C)C(=O)N[C@@H](CC(C)C)[C@@H](O)CC(=O)O)C(C)C)C(C)C` [pepstatin] (Isovaleryl-VV[Sta]A[Sta]-OH), which “blood pressure in vivo” value is on record?
**A.** reduces blood pressure
